Test results published in ChEMBL document CHEMBL1944591, “Synthesis and biological evaluation of quinazoline and quinoline bearing 2,2,6,6-tetramethylpiperidine-N-oxyl as potential epidermal growth factor receptor(EGFR) tyrosine kinase inhibitors and EPR bio-probe agents” (Eur J Med Chem, 2012).

Columns and labels:
A-431 [1] = assay: Cytotoxicity against human A431 cells after 72 hrs by MTT assay; type: functional, cell-based
A-431 [2] = assay: Cytotoxicity against human A431 cells at 300 uM after 72 hrs by MTT assay; type: functional; settings: A-431, 72 h
[3] = biological target: T1, Epidermal growth factor receptor (Homo sapiens, UniProt P00533); assay: Inhibition of EGFR after 50 mins by HTRF assay
[4] = biological target: T1, Epidermal growth factor receptor; settings: at 10 µM
A-431 [5] = assay: Cellular uptake in human A431 cells after 8 hrs by EPR spectroscopy; type: ADME, cell-based; settings: a-431, 8 h

T1 sequence (P00533 whole entry): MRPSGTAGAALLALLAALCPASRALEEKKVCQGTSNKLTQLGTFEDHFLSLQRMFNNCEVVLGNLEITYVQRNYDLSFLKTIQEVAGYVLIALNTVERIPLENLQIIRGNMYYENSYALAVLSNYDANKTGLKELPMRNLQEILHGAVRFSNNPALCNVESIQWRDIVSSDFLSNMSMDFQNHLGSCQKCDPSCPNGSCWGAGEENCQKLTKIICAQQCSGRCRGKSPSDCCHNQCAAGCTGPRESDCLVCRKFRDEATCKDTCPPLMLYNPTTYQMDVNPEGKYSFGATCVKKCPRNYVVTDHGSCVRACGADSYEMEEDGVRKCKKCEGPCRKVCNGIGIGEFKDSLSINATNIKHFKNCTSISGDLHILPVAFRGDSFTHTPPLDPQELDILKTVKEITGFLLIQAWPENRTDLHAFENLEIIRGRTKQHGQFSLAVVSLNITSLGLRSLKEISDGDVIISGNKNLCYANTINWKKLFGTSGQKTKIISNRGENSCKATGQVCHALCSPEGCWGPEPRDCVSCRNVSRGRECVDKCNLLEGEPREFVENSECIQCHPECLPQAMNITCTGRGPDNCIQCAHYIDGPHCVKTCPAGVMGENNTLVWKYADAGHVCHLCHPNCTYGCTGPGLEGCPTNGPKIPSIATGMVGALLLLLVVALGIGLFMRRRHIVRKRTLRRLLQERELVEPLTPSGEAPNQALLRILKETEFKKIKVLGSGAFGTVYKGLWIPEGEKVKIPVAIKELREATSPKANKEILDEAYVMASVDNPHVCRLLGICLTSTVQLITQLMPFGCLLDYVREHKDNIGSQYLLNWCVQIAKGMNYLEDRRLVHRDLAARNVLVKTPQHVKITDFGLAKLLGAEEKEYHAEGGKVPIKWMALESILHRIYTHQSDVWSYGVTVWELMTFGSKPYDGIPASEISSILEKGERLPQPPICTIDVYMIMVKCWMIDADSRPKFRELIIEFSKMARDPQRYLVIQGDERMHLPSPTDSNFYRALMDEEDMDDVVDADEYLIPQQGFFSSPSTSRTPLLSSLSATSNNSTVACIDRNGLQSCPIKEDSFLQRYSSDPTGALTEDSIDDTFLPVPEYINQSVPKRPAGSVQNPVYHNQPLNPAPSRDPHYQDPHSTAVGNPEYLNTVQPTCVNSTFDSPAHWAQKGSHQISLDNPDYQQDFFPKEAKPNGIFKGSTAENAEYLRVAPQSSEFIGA

Compound | IC50 (A-431 [1]; Homo sapiens, A-431, 72 h) [µM] | inhibition at 300 µM (A-431 [2]) [%] | IC50 [3] [µM] | inhibition [4] [%] | Drug uptake (A-431 [5]) | IC50 (A-431 [1]; a-431) [µM]
CC1(C)CCCC(C)(C)N1[O] | > 300 | < 50 | – | – | – | –
CC1(C)CC(C(=O)Nc2ccc3ncnc(Nc4cccc(Br)c4)c3c2)CC(C)(C)N1[O] | 27.4 | – | 0.031 | 99.4 | – | –
COc1cc2ncc(C(=O)NC3CC(C)(C)N([O])C(C)(C)C3)c(Nc3ccc(F)c(Cl)c3)c2cc1OC | 38.1 | – | 0.422 | 92.8 | Active | –
COc1cc2ncc(C(=O)O)c(Nc3ccc(F)c(Cl)c3)c2cc1OC | 88.8 | – | 9.28 | 66.5 | – | –
Nc1ccc2ncnc(Nc3cccc(Cl)c3)c2c1 | – | – | – | 98.9 | – | 31.9
COc1cc2ncc(C(=O)O)c(Nc3cccc(Cl)c3)c2cc1OC | 97.9 | – | – | – | – | –
CC1(C)CC(C(=O)Nc2ccc3ncnc(Nc4cccc(Cl)c4)c3c2)CC(C)(C)N1[O] | 26.9 | – | 0.065 | 99.4 | – | –
COc1cc2ncc(C(=O)O)c(Nc3cccc(Br)c3)c2cc1OC | 94 | – | 8.72 | 60.1 | – | –
Nc1ccc2ncnc(Nc3cccc(Br)c3)c2c1 | 34.9 | – | – | – | – | –
COc1cc2ncc(C(=O)NC3CC(C)(C)N([O])C(C)(C)C3)c(Nc3cccc(Br)c3)c2cc1OC | 43.2 | – | 0.342 | 90.3 | – | –
COc1cc2ncc(C(=O)NC3CC(C)(C)N([O])C(C)(C)C3)c(Nc3cccc(Cl)c3)c2cc1OC | 45.5 | – | 0.623 | 88.3 | – | –
CC1(C)CC(C(=O)Nc2ccc3ncnc(Nc4ccc(F)c(Cl)c4)c3c2)CC(C)(C)N1[O] | 24.7 | – | 0.015 | 99.5 | Active | –
Nc1ccc2ncnc(Nc3ccc(F)c(Cl)c3)c2c1 | – | – | 0.029 | 99.5 | – | –
